Results: the SangsterLogP compilation

Assays:
[1] = method code SF-HPLC, from PMID: 3268116; settings: pH 7.0
[2] = method code SF-HPLC, from DOI: 10.1021/je900271h
[3] = not given; remark: listed apart in the source
[4] = not given; remark: listed apart in the source
[5] = not given; remark: listed apart in the source
[6] = method code SF-AS, from DOI: 10.1093/ajhp/38.9.1308, PMID: 7282713
[7] = method code SF-AS, from DOI: 10.2116/analsci.8.761; settings: pH 6.0
[8] = method code SF-HPLC, from DOI: 10.1021/je049947x
[9] = method code SF-LC/MS, from DOI: 10.1002/rcm.3594, PMID: 18543375; settings: pH 7.4
[10] = method code SF-GLC, from DOI: 10.1016/s0022-3565(25)30310-1, PMID: 1181405; settings: pH 7.4
[11] = method code SF-GLC, from DOI: 10.1016/0378-4274(82)90116-3, PMID: 7090003
[12] = method code SF-TN, from DOI: 10.1085/jgp.71.1.93, PMID: 621494
[13] = method code SF, from DOI: 10.1080/09553009014551091, PMID: 1970998; settings: pH 7.4
[14] = method code SF-HPLC, from DOI: 10.1002/ps.2780370106; settings: pH 0.0
[15] = method code SF-AS, from DOI: 10.1016/j.ejmech.2004.01.002, PMID: 15072846; settings: pH 7.4
[16] = method code SF-AS, from DOI: 10.1016/0003-9861(82)90097-2, PMID: 6284047; settings: pH 7.4
[17] = method code SF, from DOI: 10.1021/jm020367+, PMID: 12502371
[18] = method code SF-AS, from DOI: 10.1016/j.jhazmat.2007.11.074, PMID: 18180104
[19] = method code SF-AS, from DOI: 10.1111/j.2042-7158.1981.tb11766.x; settings: pH 1.0
[20] = method code SF-TN, from DOI: 10.2116/analsci.13.897; settings: pH 2.0
[21] = method code SF-RC, from DOI: 10.1038/sj.bjc.6601862, PMID: 15150578
[22] = method code …, from Buur, A., & Bundgaard, H. (1984). Prodrugs of 5-fluorouracil. II. Hydrolysis kinetics, bioactivation, solubility and lipophilicity of N-alkoxycarbonyl derivatives of 5-fluorouracil. Arch. Pharm. …; settings: pH 4.0
[23] = method code SF-HPLC, from DOI: 10.1002/jps.2600750520, PMID: 3735094; settings: pH 4.0
[24] = method code SF, from Brown, J.; Yu, N.; Cory, M.; Bicknell, R.; Taylor, D. (1978). In vivo evaluation of the radiosensitizing and cytotoxic properties of newly synthesized electron-affinic drugs. 3, 206-211.
[25] = method code SF-AS, from DOI: 10.1248/cpb.28.85; settings: pH 2.0
[26] = method code SF-HPLC, from DOI: 10.1016/s0021-9673(01)81976-2, PMID: 4066822
[27] = not given; remark: listed apart in the source
[28] = not given; remark: listed apart in the source
[29] = method code SF-AS, from DOI: 10.1148/radiology.194.3.7862981, PMID: 7862981
[30] = not given; remark: listed apart in the source
[31] = method code SF, from DOI: 10.2307/3575246, PMID: 7367588
[32] = method code SF-AS, from DOI: 10.1016/0378-5173(80)90061-7
[33] = not given; remark: listed apart in the source
[34] = method code SF-HPLC, from DOI: 10.1021/jf0623440, PMID: 17263479
[35] = method code SF-AS, from DOI: 10.1248/cpb.26.2824
[36] = method code SF-RC, from Audran, M.; Chanal, J.; Marignan, R.; Cousse, H. (1984). Correlations between structure and pharmacokinetic parameters in a series of cresotinamides. International Journal of Pharmaceutics, …; settings: pH 1.0
[37] = method code SF-AS, from DOI: 10.1016/0006-2952(74)90620-0, PMID: 4822742; settings: pH 7.4
[38] = not given; remark: listed apart in the source
[39] = not given; remark: listed apart in the source
[40] = method code SF-AS, from DOI: 10.1016/s0045-6535(00)00181-8, PMID: 11272912
[41] = method code SF-HPLC, from Hairsine, P. (1997). Direct measurement of partition coefficient by shake flask technique and gradient elution HPLC. Lab. Practice, 38(11)73-75.
[42] = method code SF-AS, from DOI: 10.1016/s0022-3565(25)24763-2, PMID: 2019981; settings: pH 7.4
[43] = method code SF-AS,RC, from DOI: 10.2307/3575891, PMID: 7122830
[44] = not given; remark: listed apart in the source
[45] = method code SF-GLC, from DOI: 10.1271/bbb1961.46.2755
[46] = method code SF-AS, from DOI: 10.1007/s0012800114, PMID: 10885996
[47] = method code SF-HPLC, from DOI: 10.1080/02772248909357333
[48] = method code SF-AS, from Halmekoski, J.; Hannikainen, H. (1964). Rm values of hydroxy-substituted benzoic acids and partition coefficients of the acids between water and aliphatic alcohols. Suomen Kemist. B, 37, 221-226.
[49] = method code SF-HPLC, from PMID: 11745753; settings: pH 7.4

Molecule `c1ccc2[nH]ccc2c1` has a logD [1] of 2.27.

Work on `S=C=Nc1ccc(Br)cc1` yielded a logP of 4.03.

Molecule `COc1cc(C(=O)O)ccc1O` has a logP [2] of 1.46.

`O=C(O)c1ccc([N+](=O)[O-])cc1` gave a logP [3] of 1.9.

Molecule `Cc1ccc([N+](=O)[O-])cc1N` has a logP [4] of 1.87.

`CC(CCl)OC(C)CCl` (stereo not given) gave a logP [5] of 2.48.

`NNc1nncc2ccccc12` gave a logP [6] of 1.

For `OCc1ccc(O)cc1`, the logD [7] was 0.48.

Molecule `CC(C)Nc1nc(N)nc(Cl)n1` has a logP [8] of 1.49.

`c1ccc2[nH]cnc2c1` showed a logD [9] of 1.53.

`CCCCCOC(=O)NC` gave a logD [10] of 1.96.

`C=C(C)C(=O)OC(C)C` showed a logP [11] of 2.25.

In the case of `CCCCC(O)C(=O)O` (stereo not given), the logP [12] is reported as 0.81.

For `O=C(NCCO)C(F)(F)Cn1ccnc1[N+](=O)[O-]`, the logD [13] was -0.52.

`NC(=O)Nc1ccc(C(=O)O)cc1` gave a logD [14] of 0.73.

Work on `NC(=O)N/N=C/C=C/c1ccc([N+](=O)[O-])o1` yielded a logD [15] of 0.97.

Work on `CC1(C)CCC=[N+]1[O-]` yielded a logD [16] of -1.03.

Molecule `Nc1n[n+]([O-])c2cc(Cl)ccc2[n+]1[O-]` has a logP [17] of 0.46.

Work on `CNc1ccc([N+](=O)[O-])cc1` yielded a logP [18] of 1.98.

`O=C(O)c1ccc(O)cc1` gave a logD [19] of 1.56.

`O=C(O)C1CCCC1` showed a logD [20] of 1.52.

In the case of `O=C(Cn1ccnc1[N+](=O)[O-])NCCF`, the logP [21] is reported as -0.8.

Work on `CCOC(=O)n1c(=O)[nH]cc(F)c1=O` yielded a logD [22] of 0.11.

For `O=C(OCCCl)n1cc(F)c(=O)[nH]c1=O`, the logD [23] was 0.02.

With `CC(O)Cn1ccnc1[N+](=O)[O-]` (stereo not given) the logP [24] was -0.16.

Work on `O=C(O)COc1ccccc1` yielded a logD [25] of 1.35.

`COC1=C(OC)C(=O)C=CC1=O` gave a logP [26] of 0.34.

`C1=CC=CCC=C1` showed a logP [27] of 2.63.

Molecule `CC(C)OC(C)(C)C` has a logP [28] of 2.14.

`O=[N+]([O-])c1nccn1C[C@H](O)[C@H](O)CF` showed a logP [29] of -0.77.

`CCCCCCCBr` gave a logP [30] of 4.44.

Work on `Cn1c(C(O)CO)cnc1[N+](=O)[O-]` (stereo not given) yielded a logP [31] of -0.89.

Molecule `CCOC(=O)CCCO` has a logP [32] of 0.43.

With `COc1ccc([N+](=O)[O-])c(C)c1` the logP [33] was 2.38.

`O=[N+]([O-])/C=C1/NCCN1Cc1cnc(Cl)s1` gave a logP [34] of 0.03.

With `Cc1ccc(O)c(C(=O)O)c1` the logP [35] was 2.78.

`Cc1cccc(C(N)=O)c1O` gave a logD [36] of 2.12.

Molecule `CC1=NS(=O)(=O)c2cc(Cl)ccc2N1` has a logD [37] of 1.08.

`COCC(C)OC(C)=O` (stereo not given) showed a logP [38] of 0.56.

In the case of `COC(=O)c1nc(Cl)c(Cl)c(N)c1Cl`, the logP [39] is reported as 2.3.

Molecule `O=Cc1cc(Br)ccc1O` has a logP [40] of 2.5.

With `COc1ccccc1C(=O)O` the logP [41] was 1.62.

With `CCc1occc(=O)c1O` the logD [42] was 0.6.

Molecule `COCC(O)Cn1cc(Br)nc1[N+](=O)[O-]` (stereo not given) has a logP [43] of 0.46.

In the case of `COP(=S)(OC)Oc1cc(Cl)c(Cl)cc1Cl`, the logP [44] is reported as 4.67.

For `CCCS(=O)(=O)CCC`, the logP [45] was 0.39.

With `CS(=O)(=O)c1ccc(C=O)cc1` the logP [46] was 0.35.

Molecule `COc1nn(CSP(=S)(OC)OC)c(=O)s1` has a logP [47] of 2.22.

Work on `O=C(O)c1cc(O)ccc1O` yielded a logP [48] of 1.12.

Work on `COC(=O)c1ccc(N)cc1` yielded a logD [49] of 1.48.
